# Measured values reported in patent US20240116877A1, “KIT KINASE INHIBITORS AND METHODS OF USE THEREOF” (Deciphera Pharmaceuticals, LLC, priority 2021, published 2024).
# Like-named read-outs stand apart in the source and are kept apart here.
# What was measured:
# [1] = tested on: GIST 430 cells; assay: GIST 430 Cell Proliferation Assay (resazurin); type: cell-based; conditions: Homo sapiens; GIST430 cell proliferation
# Protocol: GIST 430 Cell Proliferation Assay
# (§1) A serial dilution of test compound was dispensed into a 96-well black clear bottom plate (Corning, Corning, NY). Five thousand cells were added per well in 200 μL complete growth medium. Plates were incubated for 115 h at 37 degrees Celsius, 5% CO2, 95% humidity. At the end of the incubation period 40 μL of a 440 μM solution of resazurin (Sigma, St. Louis, MO) in PBS was added to each well and incubated for an additional 5 h at 37 degrees Celsius, 5% CO2, 95% humidity. Plates were read on a Synergy2 reader (Biotek, Winooski, VT) using an excitation of 540 nm and an emission of 600 nm. Data was analyzed using Prism software (Graphpad, San Diego, CA) to calculate IC50 values.
# [2] = tested on: Ba/F3 KIT mutant cells; assay: Ba/F3 mutant KIT Cell Proliferation Assays (resazurin); type: cell-based; conditions: Mus musculus, BaF3
# Protocol: Ba/F3 KIT Mutant Cell Line Transduction and Expansion
# Several different KIT cDNA encoding various primary and secondary mutations were cloned into a pLV(Exp]-CMV>(cDNA):IRES:puro vector. These vectors were constructed and packaged by VectorBuilder.
# Exponentially grown Ba/F3 cells (1×10^6 cells in 1 ml medium) were infected with 60 μl of viral suspension in a 6-well plate in the presence of mIL-3 (10 ng/ml) and polybrene (7.5 μg/ml) (Vector Builder) and incubated for 16 h. After 16 h, the cells were centrifuged, and viral supernatant was discarded. The cells were then re-suspended in fresh medium and allowed to recover for another day. After 72 h post infection, the cells were seeded with complete medium with mIL-3 and with 1 μg/ml puromycin added to medium for selection. After 48 h, cells without viral infection die, whereas successfully transduced cells were collected and changed to fresh medium with 5 ng/ml of IL-3. After a week or two with gradual withdrawal of mIL3 the cells that can continue to proliferate in the absence of mIL3 were exponentially expanded and were frozen down for banking.
# Ba/F3 mutant KIT Cell Proliferation Assays
# as §1, with “a 384-well” for “a 96-well”, “NY). Six hundred and twenty-five” for “NY). Five thousand”, “in 50” for “in 200”, “for 68” for “for 115”, “at 37° C.,” for “at 37 degrees Celsius,”, “period 10” for “period 40”
# [3] = biological target: c-KIT kinase (uKIT) (Homo sapiens (Human), UniProt P10721); assay: Biochemical Assay for uKIT (coupled pyruvate kinase/lactate dehydrogenase assay); conditions: Inhibition of biochemical activity of uKIT kinase; 1 mM ATP
# Protocol: Biochemical Assay for uKIT
# Activity of c-KIT kinase (SEQ. ID NO. 1 or SEQ. ID NO. 2) was determined spectroscopically using a coupled pyruvate kinase/lactate dehydrogenase assay that continuously monitors the ATP hydrolysis-dependent oxidation of NADH (e.g., Schindler et al. Science (2000) 289: 1938-1942). Assays were conducted in 384-well plates (100 μL final volume) using 16 nM (Decode, SEQ ID No. 1) or 4.36 nM (Signal Chem, SEQ. ID No. 2), 0.7 mg/mL PE4Y substrate, 1.5 units pyruvate kinase, 2.1 units lactate dehydrogenase, 1 mM phosphoenol pyruvate, 0.28 mM NADH and 1 mM ATP in assay buffer (100 mM Tris, pH 7.5, 15 mM MgCl2, 0.5 mM DTT, 0.1% octyl-glucoside, 0.002% (w/v) BSA, and 0.002% Triton X-100). Inhibition of KIT was measured by adding serial diluted test compound (final assay concentration of 1% DMSO). A decrease in absorption at 340 nm was monitored continuously for 6 h at 30° C. on a multi-mode microplate reader (BioTek). The reaction rate was calculated using the 2-3 h time frame. The reaction rate at each concentration of compound was converted to percent inhibition using controls (i.e., reaction with no test compound and reaction with a known inhibitor) and IC50 values were calculated using software routines in Prism (GraphPad software).
# [4] = Ba/F3 KIT AYdup-V654A mutant cell proliferation, read-out: AYdup-V654A IC50
# [5] = Ba/F3 KIT exon11del-V654A mutant cell proliferation, read-out: exon11del-V654A IC50
# [6] = Ba/F3 KIT exon11del-Y823D mutant cell proliferation, read-out: exon11del-Y823D IC50
# [7] = Ba/F3 KIT AYdup-D816G mutant cell proliferation, read-out: AYdup-D816G IC50
# [8] = Ba/F3 KIT AYdup mutant cell proliferation, read-out: AYdup IC50
# Chain of c-KIT kinase (uKIT) (P10721 other isoform, or with tags, fused parts or gaps): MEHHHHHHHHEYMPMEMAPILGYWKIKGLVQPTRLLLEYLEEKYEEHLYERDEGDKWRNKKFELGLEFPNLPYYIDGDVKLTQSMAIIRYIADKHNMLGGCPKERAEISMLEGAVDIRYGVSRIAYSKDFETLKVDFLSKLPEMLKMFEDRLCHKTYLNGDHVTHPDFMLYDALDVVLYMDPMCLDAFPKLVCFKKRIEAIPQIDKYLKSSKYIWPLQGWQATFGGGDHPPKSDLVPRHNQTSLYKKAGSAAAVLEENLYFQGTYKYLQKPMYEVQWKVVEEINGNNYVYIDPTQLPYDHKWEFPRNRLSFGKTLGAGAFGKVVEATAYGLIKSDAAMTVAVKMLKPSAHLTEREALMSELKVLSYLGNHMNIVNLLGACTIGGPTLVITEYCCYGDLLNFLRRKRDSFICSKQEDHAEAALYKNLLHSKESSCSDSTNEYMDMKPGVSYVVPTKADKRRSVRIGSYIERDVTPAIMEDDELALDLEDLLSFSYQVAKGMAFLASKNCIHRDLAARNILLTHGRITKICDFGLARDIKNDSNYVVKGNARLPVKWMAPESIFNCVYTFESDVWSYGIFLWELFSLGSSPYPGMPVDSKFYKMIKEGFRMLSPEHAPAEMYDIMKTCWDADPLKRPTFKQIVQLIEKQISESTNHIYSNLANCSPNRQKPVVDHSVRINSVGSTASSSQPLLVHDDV
SMILES,"IC50 [2, 4] [nM]","IC50 [2, 5] [nM]","IC50 [2, 6] [nM]",IC50 [3] [nM],"IC50 [2, 7] [nM]","IC50 [2, 8] [nM]",IC50 [1] [nM]
COCCOc1cc(F)c2c(Nc3ccc(NC(=O)CC(=O)N4CCCC4(C)C)cc3)ncnc2c1 [Example 140],10 to 100,10 to 100,100 to 1000,10 to 100,,,10 to 100
COCCOc1cc(F)c2c(Nc3ccc(NC(=O)C(=O)NCC(C)(C)C)cc3)ncnc2c1 [Example 126],100 to 1000,100 to 1000,> 1000,100 to 1000,,,100 to 1000
CN1CC[C@H](Oc2cc(F)c3c(Nc4ccc(NC(=O)NCCC(C)(C)F)cc4)ncnc3c2)C1 [Example 172],10 to 100,10 to 100,10 to 100,10 to 100,,,10 to 100
COCCOc1cc(F)c2c(Nc3ccc(NC(=O)CCC4CCOCC4)cc3)ncnc2c1 [Example 63],100 to 1000,10 to 100,> 1000,10 to 100,,,10 to 100
COCCOc1cc(F)c2c(Nc3ccc(NC(=O)CC(=O)NC4CC4)cc3)ncnc2c1 [Example 94],100 to 1000,100 to 1000,,100 to 1000,,,100 to 1000
COCCOc1cc(F)c2c(Nc3ccc(NC(=O)CC(=O)NCCC(C)C)cc3)ncnc2c1 [Example 100],10 to 100,10 to 100,100 to 1000,10 to 100,,,10 to 100
COCCOc1cc(F)c2c(Nc3ccc(NC(=O)C(=O)NCCC(C)(C)C)cc3)ncnc2c1 [Example 125],10 to 100,10 to 100,,10 to 100,,,10 to 100
COCCOc1cc(F)c2c(Nc3ccc(NC(=O)C(C)NC(=O)CC(C)C)cc3)ncnc2c1 (stereo not shown) [Example 55],100 to 1000,10 to 100,100 to 1000,100 to 1000,,,100 to 1000
COCCOc1cc(F)c2c(Nc3ccc(NC(=O)CC(=O)N4CCCC4)cc3)ncnc2c1 [Example 186],> 1000,> 1000,> 1000,100 to 1000,,,> 1000
COCCOc1cc(F)c2c(Nc3ccc(NC(=O)CC(=O)N(C)CC(C)(C)C)cc3)ncnc2c1 [Example 51],10 to 100,10 to 100,10 to 100,10 to 100,10 to 100,10 to 100,≤ 10
COCCOc1cc(F)c2c(Nc3ccc(NC(=O)NC4CC(C)(C)C4)nc3)ncnc2c1 [Example 25],> 1000,> 1000,,100 to 1000,,,> 1000
COCCOc1cc(F)c2c(Nc3ccc(NC(=O)CC(=O)NCC4CC4)cc3)ncnc2c1 [Example 77],10 to 100,≤ 10,100 to 1000,10 to 100,,,10 to 100
COCCOc1cc(F)c2c(Nc3ccc(NC(=O)N[C@@H]4CCOC4)cc3)ncnc2c1 [Example 14],,,,10 to 100,,,100 to 1000
COCCOc1cc(F)c2c(Nc3ccc(NC(=O)NC4CCOCC4)cc3)ncnc2c1 [Example 12],,,,10 to 100,,,100 to 1000
COCCOc1cc(F)c2c(Nc3ccc(NC(=O)NCCC(C)(C)OC)nc3)ncnc2c1 [Example 24],,,,100 to 1000,,,100 to 1000
"COCCOc1cc(F)c2c(Nc3ccc(NC(=O)CCC(C)(C)C)cc3)ncnc2c1 [Example 3, N-(4-((5-fluoro-7-(2-methoxyethoxy)quinazolin-4-yl)amino)phenyl)-4,4-dimethylpentanamide]",,,,10 to 100,,,100 to 1000
COCCOc1cc(F)c2c(Nc3ccc(NC(=O)NCC4COC4)cc3)ncnc2c1 [Example 11],,,,10 to 100,,,100 to 1000
COCCOc1cc(F)c2c(Nc3ccc(NC(=O)CCC(C)(C)F)cc3)ncnc2c1 [Example 23],,,,100 to 1000,,,100 to 1000
COCCOc1cc(F)c2c(Nc3ccc(NC(=O)NCCC4CCCC4)cc3)ncnc2c1 [Example 21],,,,≤ 10,,,≤ 10

# Now from value to compound, other results behind:
"IC50 [2, 4] [nM]","IC50 [2, 5] [nM]","IC50 [2, 6] [nM]",IC50 [3] [nM],"IC50 [2, 7] [nM]","IC50 [2, 8] [nM]",SMILES,IC50 [1] [nM]
10 to 100,≤ 10,100 to 1000,≤ 10,,,COCCOc1cc(F)c2c(Nc3ccc(NC(=O)CC(=O)NCCC(C)(C)C)cc3)ncnc2c1 [Example 82],10 to 100
10 to 100,10 to 100,10 to 100,≤ 10,≤ 10,,COCCOc1cc(F)c2c(Nc3ccc(NC(=O)N[C@H]4CC[C@H](C(F)(F)F)CC4)cc3)ncnc2c1 [Example 30],≤ 10
10 to 100,≤ 10,10 to 100,≤ 10,,,COCCOc1cc(F)c2c(Nc3ccc(NC(=O)NCCCC(C)(C)F)cc3)ncnc2c1 [Example 106],≤ 10
10 to 100,10 to 100,10 to 100,≤ 10,10 to 100,≤ 10,COCCOc1cc(F)c2c(Nc3ccc(NC(=O)NCCC4(C#N)CC4)cc3)ncnc2c1 [Example 35],10 to 100
≤ 10,≤ 10,10 to 100,≤ 10,≤ 10,≤ 10,COCCOc1cc(F)c2c(Nc3ccc(NC(=O)NCCC(C)(C)C)cc3)ncnc2c1 [Example 9],≤ 10
≤ 10,10 to 100,10 to 100,≤ 10,≤ 10,≤ 10,CC(C)(F)CCNC(=O)Nc1ccc(Nc2ncnc3cc(OCCCN4CCCC4)cc(F)c23)cc1 [Example 158],10 to 100
10 to 100,≤ 10,≤ 10,≤ 10,≤ 10,≤ 10,CC(C)(C#N)CCNC(=O)Nc1ccc(Nc2ncnc3cc(OCCN4CCOCC4)cc(F)c23)cc1 [Example 104],≤ 10
10 to 100,≤ 10,10 to 100,≤ 10,,,COCCOc1cc(F)c2c(Nc3ccc(NC(=O)NCCCC(C)(C)C#N)cc3)ncnc2c1 [Example 99],≤ 10
10 to 100,10 to 100,100 to 1000,≤ 10,,,COCCOc1cc(F)c2c(Nc3ccc(NC(=O)CC(=O)NCC4CCCCC4)cc3)ncnc2c1 [Example 91],10 to 100
,,,≤ 10,,,COCCOc1cc(F)c2c(Nc3ccc(NC(=O)NCCC4(C(F)(F)F)CC4)cc3)ncnc2c1 [Example 17],≤ 10
,,,≤ 10,,,COCCOc1cc(F)c2c(Nc3ccc(NC(=O)NCCC4CC(F)(F)C4)cc3)ncnc2c1 [Example 22],≤ 10
,,,≤ 10,,,"COCCOc1cc(F)c2c(Nc3ccc(NC(=O)NCCC(C)(C)C(F)(F)F)cc3)ncnc2c1 [Example 1, 1-(4-((5-fluoro-7-(2-methoxyethoxy)quinazolin-4-yl)amino)phenyl)-3-(4,4,4-trifluoro-3,3-dimethylbutyl)urea]",≤ 10
